Results: the NIST ThermoML archive (doi:10.1016/j.jct.2005.03.020)
± gives the expanded uncertainty stated by the source.

What was measured:
[1] = excess molar enthalpy (molar enthalpy of mixing); xn = mol fraction of the nth substance listed; details: 298.15 K, 101.33 kPa, Liquid
[2] = xn = mol fraction of the nth substance listed; details: 298.15 K, 101.33 kPa, Liquid
[3] = refractive index (Na D-line) (dimensionless); details: 298.15 K; 101.33 kPa; Liquid; Standard Abbe refractometry
[4] = 298.15 K; 101.33 kPa; Liquid

ClCCCCl [1,3-dichloropropane] + CCCC(=O)OCC
Details | excess molar enthalpy [kJ/mol] | mass density [kg/m3]
[1], x2 = 0.045 | -0.0259 ± 0.002 | –
[1], x2 = 0.0966 | -0.0636 ± 0.0026 | –
[1], x2 = 0.1504 | -0.0979 ± 0.0031 | –
[1], x2 = 0.2076 | -0.147 ± 0.0038 | –
[1], x2 = 0.2635 | -0.189 ± 0.0045 | –
[1], x2 = 0.3171 | -0.236 ± 0.0052 | –
[1], x2 = 0.3678 | -0.282 ± 0.0059 | –
[1], x2 = 0.4155 | -0.311 ± 0.0064 | –
[1], x2 = 0.4596 | -0.327 ± 0.0066 | –
[1], x2 = 0.5012 | -0.335 ± 0.0067 | –
[1], x2 = 0.5417 | -0.334 ± 0.0067 | –
[1], x2 = 0.605 | -0.326 ± 0.0066 | –
[1], x2 = 0.6754 | -0.297 ± 0.0062 | –
[1], x2 = 0.7523 | -0.244 ± 0.0053 | –
[1], x2 = 0.8348 | -0.179 ± 0.0043 | –
[1], x2 = 0.9216 | -0.0999 ± 0.0031 | –
[2], x2 = 0.0446 | – | 1159.59 ± 0.83
[2], x2 = 0.088 | – | 1141.99 ± 0.82
[2], x2 = 0.1341 | – | 1124.03 ± 0.8
[2], x2 = 0.1825 | – | 1105.75 ± 0.79
[2], x2 = 0.2294 | – | 1088.7 ± 0.79
[2], x2 = 0.2836 | – | 1069.63 ± 0.78
[2], x2 = 0.3377 | – | 1051.42 ± 0.78
[2], x2 = 0.3924 | – | 1033.68 ± 0.78
[2], x2 = 0.4475 | – | 1016.45 ± 0.78
[2], x2 = 0.5058 | – | 998.9 ± 0.79
[2], x2 = 0.5686 | – | 980.73 ± 0.82
[2], x2 = 0.6322 | – | 963.09 ± 0.84
[2], x2 = 0.6986 | – | 945.45 ± 0.88
[2], x2 = 0.7724 | – | 926.66 ± 0.91
[2], x2 = 0.8405 | – | 910.03 ± 0.94

ClCCCCl [1,3-dichloropropane]
Details | mass density [kg/m3] | refractive index
[3] | – | 1.4455 ± 0.0008
[4] | 1178.34 ± 0.8 | –

CCCCC(=O)OCC [ethyl pentanoate]
Details | mass density [kg/m3] | refractive index
[3] | – | 1.398 ± 0.0008
[4] | 869.42 ± 0.62 | –

ClCCCCCl [1,4-dichlorobutane] + CCOC(C)=O
Details | excess molar enthalpy [kJ/mol] | mass density [kg/m3]
[1], x2 = 0.0692 | -0.0084 ± 0.0017 | –
[1], x2 = 0.1414 | -0.0198 ± 0.0019 | –
[1], x2 = 0.2133 | -0.0355 ± 0.0021 | –
[1], x2 = 0.2818 | -0.0549 ± 0.0024 | –
[1], x2 = 0.347 | -0.0759 ± 0.0027 | –
[1], x2 = 0.4035 | -0.0968 ± 0.0031 | –
[1], x2 = 0.4514 | -0.115 ± 0.0033 | –
[1], x2 = 0.4919 | -0.129 ± 0.0036 | –
[1], x2 = 0.5264 | -0.142 ± 0.0037 | –
[1], x2 = 0.5571 | -0.152 ± 0.0039 | –
[1], x2 = 0.5836 | -0.161 ± 0.0041 | –
[1], x2 = 0.6072 | -0.169 ± 0.0042 | –
[1], x2 = 0.6278 | -0.173 ± 0.0042 | –
[1], x2 = 0.6525 | -0.177 ± 0.0043 | –
[1], x2 = 0.7106 | -0.163 ± 0.0041 | –
[1], x2 = 0.7719 | -0.144 ± 0.0038 | –
[1], x2 = 0.8337 | -0.115 ± 0.0033 | –
[1], x2 = 0.8915 | -0.0806 ± 0.0028 | –
[1], x2 = 0.9475 | -0.0417 ± 0.0022 | –
[2], x2 = 0.0693 | – | 1118.08 ± 0.72
[2], x2 = 0.1314 | – | 1104.46 ± 0.68
[2], x2 = 0.1955 | – | 1090.4 ± 0.64
[2], x2 = 0.2579 | – | 1076.44 ± 0.6
[2], x2 = 0.3205 | – | 1062.24 ± 0.56
[2], x2 = 0.3812 | – | 1048.26 ± 0.52
[2], x2 = 0.442 | – | 1034.12 ± 0.49
[2], x2 = 0.5019 | – | 1019.95 ± 0.45
[2], x2 = 0.5602 | – | 1006.01 ± 0.42
[2], x2 = 0.6172 | – | 992.21 ± 0.4
[2], x2 = 0.6757 | – | 977.84 ± 0.4
[2], x2 = 0.7842 | – | 950.68 ± 0.42
[2], x2 = 0.8386 | – | 936.74 ± 0.43
[2], x2 = 0.8929 | – | 922.7 ± 0.45
[2], x2 = 0.9453 | – | 908.9 ± 0.47

ClCCCl [1,2-dichloroethane] + CCOC(C)=O
Details | excess molar enthalpy [kJ/mol] | mass density [kg/m3]
[1], x2 = 0.0368 | -0.0393 ± 0.0022 | –
[1], x2 = 0.0819 | -0.0877 ± 0.0029 | –
[1], x2 = 0.131 | -0.144 ± 0.0038 | –
[1], x2 = 0.1846 | -0.205 ± 0.0048 | –
[1], x2 = 0.2408 | -0.269 ± 0.0057 | –
[1], x2 = 0.295 | -0.326 ± 0.0066 | –
[1], x2 = 0.3419 | -0.363 ± 0.0072 | –
[1], x2 = 0.3836 | -0.391 ± 0.0076 | –
[1], x2 = 0.4244 | -0.422 ± 0.0081 | –
[1], x2 = 0.46 | -0.443 ± 0.0084 | –
[1], x2 = 0.4728 | -0.446 ± 0.0085 | –
[1], x2 = 0.4972 | -0.451 ± 0.0085 | –
[1], x2 = 0.5087 | -0.451 ± 0.0085 | –
[1], x2 = 0.5523 | -0.449 ± 0.0085 | –
[1], x2 = 0.604 | -0.436 ± 0.0083 | –
[1], x2 = 0.6668 | -0.404 ± 0.0078 | –
[1], x2 = 0.747 | -0.338 ± 0.0068 | –
[1], x2 = 0.8328 | -0.243 ± 0.0053 | –
[1], x2 = 0.9184 | -0.135 ± 0.0037 | –
[2], x2 = 0.0497 | – | 1223.67 ± 0.78
[2], x2 = 0.0983 | – | 1202.79 ± 0.73
[2], x2 = 0.1492 | – | 1181.45 ± 0.68
[2], x2 = 0.1997 | – | 1160.95 ± 0.64
[2], x2 = 0.2524 | – | 1140.18 ± 0.59
[2], x2 = 0.3059 | – | 1119.62 ± 0.55
[2], x2 = 0.3618 | – | 1098.71 ± 0.5
[2], x2 = 0.4184 | – | 1078.16 ± 0.46
[2], x2 = 0.4765 | – | 1057.68 ± 0.42
[2], x2 = 0.5356 | – | 1037.35 ± 0.38
[2], x2 = 0.5982 | – | 1016.38 ± 0.34
[2], x2 = 0.6603 | – | 996.21 ± 0.32
[2], x2 = 0.7247 | – | 975.88 ± 0.35
[2], x2 = 0.7893 | – | 955.96 ± 0.38
[2], x2 = 0.857 | – | 935.65 ± 0.41
[2], x2 = 0.928 | – | 914.85 ± 0.45

ClCCCCCCCl [1,6-dichlorohexane]
Details | mass density [kg/m3] | refractive index
[3] | – | 1.4555 ± 0.0008
[4] | 1063.72 ± 1.2 | –
